# In patent publication US10238618B2, “Compositions and methods for diagnosis and treatment of anemia” (The United States of America as represented by the …, priority 2016, dated 2019):
# How the values were obtained:
# Type in all cases: in vivo, bottlenose dolphin (Tursiops truncatus)
# [1] = Serum fatty acid form concentrations (complex lipidomics) in dolphins fed modified diet; settings: case dolphins fed modified diet (n = 20)
# Method: (§1) Determination of serum fatty acid concentrations, including a variety of fatty acid classes, were performed by Metabolon, Inc. (Durham, N.C.) using complex lipidomics. Lipids were extracted from samples using dichloromethane and methanol in a modified Bligh-Dyer extraction in the presence of internal standards with the lower, organic, phase being used for analysis. The extracts were concentrated under nitrogen and reconstituted in 0.25 mL of dichloromethane:methanol (50:50) containing 10 mM ammonium acetate. The extracts were placed in vials for infusion-MS analyses, performed on a SelexION equipped Sciex 5500 QTRAP using both positive and negative mode electrospray. Each sample was subjected to 2 analyses, with IMS-MS conditions optimized for lipid classes monitored in each analysis. The 5500 QTRAP was operated in MRM mode to monitor the transitions for over 1,100 lipids from up to 14 lipid classes. Individual lipid species were quantified based on the ratio of signal intensity for target compounds to the signal intensity for an assigned internal standard of known concentration. Lipid class concentrations were calculated from the sum of all molecular species within a class, and fatty acid compositions were determined by calculating the proportion of individual fatty acids within each class. […]
# [2] = Total serum fatty acid concentrations in dolphins fed modified diet; settings: for concentration at 0 month / concentration at 1 month / concentration at 3 month / concentration at 6 month: bottlenose dolphin (Tursiops truncatus), Case dolphins fed modified diet (n = 20); for concentration at 0 month: Month 0 (baseline), 2 h postprandial; for concentration at 1 month: Month 1, 2 h postprandial; for concentration at 3 month: Month 3, 2 h postprandial; for concentration at 6 month: Month 6, 2 h postprandial
# Method: CV % were typically under 10%.
# as §1
# red blood cell indices = assay: Stepwise and simple linear regression: serum fatty acids as predictors of red blood cell indices; settings: Group A dolphins on the modified diet
# Method: Fatty acids that were independent predictors of red blood cell indices were then tested for linear associations with red blood cell indices using simple linear regressions.
# [3] = Serum total fatty acids (% of total fatty acids), MMP dolphins versus wild Sarasota Bay dolphins
# From the text: Dolphins at the Navy Marine Mammal Program (MMP) are a well-studied dolphin population with regard to chronic diseases and diseases of aging, and this population is more susceptible to anemia (lower packed cell volume and lower hemoglobin) compared to wild dolphins living in Sarasota Bay, Fla. (Table 1). MMP dolphins also have lower total serum odd chain saturated fatty acids and lower very long even chain saturated fatty acids compared to Sarasota Bay dolphins (Table 1, See also Venn-Watson et al. (2016) Increased dietary intake of saturated fatty acid heptadecanoic acid (C17:0) associated with decreasing ferritin and alleviated metabolic syndrome in dolphins. […] Proposed risk factors for anemia in MMP dolphins can include advanced age, chronic disease, and diet (see Venn-Watson S, Smith C R, Gomez F, Jensen E D (2011) Physiology of aging among healthy, older bottlenose dolphins (Tursiops truncatus): comparisons with aging humans. J Comp Phys B 181:667-680). It can be hypothesized that differences in dietary fish (and differences in certain fatty acids associated with particular types of fish) can be responsible for the risk of anemia.
# [4] = wild Sarasota Bay Dolphins (n = 19)
Compound,Serum concentrations of fatty acid forms ([1]; Month 0 (baseline)) [µM],Serum concentrations of fatty acid forms ([1]; Month 1) [µM],Serum concentrations of fatty acid forms ([1]; Month 3) [µM],Serum concentrations of fatty acid forms ([1]; Month 6) [µM],also measured
CCCCCCCCCCCCCCCCC(=O)O[C@H]1CC[C@@]2(C)C(=CC[C@H]3[C@@H]4CC[C@H]([C@H](C)CCCC(C)C)[C@@]4(C)CC[C@@H]32)C1 [C17:0 CE],14 ± 4,18 ± 7,20 ± 8,21 ± 9,
CCCCCCCCCCCCCCCCCCCCCCCCCC(=O)O [C26:0],,,,,Change of total serum concentration versus Month 0 ([2]; in vivo): increased
"CCCCCCCCCCCCCCCCC(=O)O [C17:0, heptadecanoic acid]",,,,,"concentration at 0 month ([2]; serum, oral): 51 ± 9 µM; concentration at 1 month ([2]; serum, oral): 82 ± 21 µM; concentration at 3 month ([2]; serum, oral): 93 ± 23 µM; concentration at 6 month ([2]; serum, oral): 85 ± 15 µM; Increased serum concentration as independent, linear predictor of red blood cell indices (red blood cell indices): independently predicted higher hematocrit, higher packed cell volume, higher hemoglobin, and higher red blood cell counts; Serum fatty acid (%) ([3]; MMP Dolphins (n = 30)): 0.3 ± 0.1%; Serum fatty acid (%) [3, 4]: 1.3 ± 0.4%"
CCCCCCCCCCCCCCCCCCCC(=O)O [C20:0],,,,,"Serum fatty acid (%) ([3]; MMP Dolphins (n = 30)): 0.9 ± 0.2%; Serum fatty acid (%) [3, 4]: 1.5 ± 0.3%"
"CCCCCCCCCCCCCCC(=O)O [C15:0, pentadecanoic acid]",,,,,"concentration at 0 month ([2]; serum, oral): 35 ± 9 µM; concentration at 1 month ([2]; serum, oral): 94 ± 33 µM; concentration at 3 month ([2]; serum, oral): 111 ± 29 µM; concentration at 6 month ([2]; serum, oral): 101 ± 29 µM; Increased serum concentration as independent, linear predictor of red blood cell indices (red blood cell indices): independently predicted higher hematocrit, higher packed cell volume, higher hemoglobin, and higher red blood cell counts; Serum fatty acid (%) ([3]; MMP Dolphins (n = 30)): 0.3 ± 0.1%; Serum fatty acid (%) [3, 4]: 1.1 ± 0.4%"
CCCCCCCCCCCCCC(=O)O[C@H]1CC[C@@]2(C)C(=CC[C@H]3[C@@H]4CC[C@H]([C@H](C)CCCC(C)C)[C@@]4(C)CC[C@@H]32)C1 [C14:0 CE],126 ± 32,86 ± 21,93 ± 20,92 ± 25,
"CCCCCCCCCCCCCCCCCCCCCC(=O)O [C22:0, behenic acid]",,,,,"concentration at 0 month ([2]; in vivo): 23 ± 4 µM; concentration at 1 month ([2]; in vivo): 21 ± 3 µM; concentration at 3 month ([2]; in vivo): 23 ± 3 µM; concentration at 6 month ([2]; in vivo): 24 ± 5 µM; Serum fatty acid (%) ([3]; MMP Dolphins (n = 30)): 0.2 ± 0.04%; Serum fatty acid (%) [3, 4]: 0.7 ± 0.2%"
CCCCCCCCCCCCCCCC(=O)O[C@H]1CC[C@@]2(C)C(=CC[C@H]3[C@@H]4CC[C@H]([C@H](C)CCCC(C)C)[C@@]4(C)CC[C@@H]32)C1 [C16:0 CE],273 ± 50,226 ± 41,244 ± 33,245 ± 48,
CCCCCCCCCCCCCCCCCCCCCCCC(=O)O [C24:0],,,,,"Serum fatty acid (%) ([3]; MMP Dolphins (n = 30)): 0.1 ± 0.0%; Serum fatty acid (%) [3, 4]: 0.5 ± 0.1%"
"CCCCCCCCCCCCCC(=O)O [C14:0, myristic acid]",,,,,"concentration at 0 month ([2]; serum, oral): 243 ± 63 µM; concentration at 1 month ([2]; serum, oral): 195 ± 50 µM; concentration at 3 month ([2]; serum, oral): 226 ± 46 µM; concentration at 6 month ([2]; serum, oral): 206 ± 33 µM"
"CCCCCCCCCCCCCCCC(=O)O [C16:0, palmitic acid]",,,,,concentration at 0 month ([2]; in vivo): 1440 ± 194 µM; concentration at 1 month ([2]; in vivo): 1370 ± 199 µM; concentration at 3 month ([2]; in vivo): 1500 ± 221 µM; concentration at 6 month ([2]; in vivo): 1450 ± 155 µM; Change of total serum concentration versus Month 0 ([2]; in vivo): either did not change or decreased
CCCCCCCCCCCCCCC(=O)O[C@H]1CC[C@@]2(C)C(=CC[C@H]3[C@@H]4CC[C@H]([C@H](C)CCCC(C)C)[C@@]4(C)CC[C@@H]32)C1 [C15:0 CE],22 ± 5,61 ± 19,66 ± 17,64 ± 22,"Increased serum concentration as independent, linear predictor of red blood cell indices (red blood cell indices): independently predicted improved red blood cell indices"
CCCCCCCCCCCCCCC(=O)O [C15:0 FFA],3.8 ± 1.3,4.2 ± 1.5,3.6 ± 0.8,3.8 ± 1.3,

# Further lines, with some results ahead:
Serum concentrations of fatty acid forms ([1]; Month 0 (baseline)) [µM],Serum concentrations of fatty acid forms ([1]; Month 1) [µM],Serum concentrations of fatty acid forms ([1]; Month 3) [µM],Serum concentrations of fatty acid forms ([1]; Month 6) [µM],Compound,also measured
8.5 ± 2.4,5.7 ± 1.5,5.9 ± 1.5,6.3 ± 2.1,CCCCCCCCCCCCCCCCCCCCCC(=O)O[C@H]1CC[C@@]2(C)C(=CC[C@H]3[C@@H]4CC[C@H]([C@H](C)CCCC(C)C)[C@@]4(C)CC[C@@H]32)C1 [C22:0 CE],
0.07 ± 0.02,0.11 ± 0.03,0.13 ± 0.05,0.12 ± 0.03,CCCCCCCCCCCCCCCCCCCCCCCC(=O)N[C@@H](CO)[C@H](O)CCCCCCCCCCCCCCC [C24:0 DCER],
6.6 ± 2.5,4.4 ± 1.4,5.0 ± 2.3,17 ± 10,CCCCCCCCCCCCCCCCCCCC(=O)O [C20:0 FFA],
0.19 ± 0.04,0.23 ± 0.05,0.26 ± 0.07,0.25 ± 0.06,CCCCCCCCCCCCC/C=C/[C@@H](O)[C@H](CO)NC(=O)CCCCCCCCCCCCCCCCCCCCC [C22:0 CER],
0.50 ± 0.10,0.39 ± 0.08,0.42 ± 0.08,0.41 ± 0.07,CCCCCCCCCCCCC/C=C/[C@@H](O)[C@H](CO)NC(=O)CCCCCCCCCCCCCCCCCCC [C20:0 CER],
